# Test results reported in ChEMBL document CHEMBL4385628, “New insights into the binding mode of pyridine-3-carboxamide inhibitors of E. coli DNA gyrase” (Bioorg Med Chem, 2019).
# The source made the active and inactive calls. The calls are words filed in the database; no cut-off is given here.
# How the values were obtained:
# [1] = biological target: DNA gyrase (Escherichia coli, UniProt P0AES4+P0AES6); assay: Inhibition of Escherichia coli DNA gyrase(A2B2 tetramer) preincubated for 5 mins followed by ATP addition and measured once per minute for 20 to 30 minutes by ATPase assay; format: protein-complex assay
# [2] = system: Staphylococcus aureus; assay: Antibacterial activity against Staphylococcus aureus ATCC 29213 assessed as reduction in microbial growth by CLSI based broth microdilution method; format: functional
# [3] = system: Escherichia coli; assay: Antibacterial activity against Escherichia coli ATCC 25922 assessed as reduction in microbial growth by CLSI based broth microdilution method; format: functional
# [4] = biological target: DNA topoisomerase 2-alpha (Homo sapiens) (UniProt P11388); assay: Inhibition of human topoisomerase-2alpha up to 100 uM
# [5] = Efflux ratio of apparent permeability across basolateral to apical over apical to basolateral side in human Caco2 cells; format: ADME, cell-based; details: Caco-2
# [6] = Aqueous solubility of compound; format: physicochemical
# [7] = Half life in human liver microsomes; format: ADME, Microsome
# [8] = Protein binding in human plasma; format: ADME, cell-free; details: read-out: PPB (converted)
# [9] = Apparent permeability across apical to basolateral side in human Caco2 cells; format: ADME, cell-based; details: Caco-2
# [10] = Half life in mouse liver microsomes; format: ADME, Microsome
# Sequence of DNA topoisomerase 2-alpha (Homo sapiens) (P11388 whole entry): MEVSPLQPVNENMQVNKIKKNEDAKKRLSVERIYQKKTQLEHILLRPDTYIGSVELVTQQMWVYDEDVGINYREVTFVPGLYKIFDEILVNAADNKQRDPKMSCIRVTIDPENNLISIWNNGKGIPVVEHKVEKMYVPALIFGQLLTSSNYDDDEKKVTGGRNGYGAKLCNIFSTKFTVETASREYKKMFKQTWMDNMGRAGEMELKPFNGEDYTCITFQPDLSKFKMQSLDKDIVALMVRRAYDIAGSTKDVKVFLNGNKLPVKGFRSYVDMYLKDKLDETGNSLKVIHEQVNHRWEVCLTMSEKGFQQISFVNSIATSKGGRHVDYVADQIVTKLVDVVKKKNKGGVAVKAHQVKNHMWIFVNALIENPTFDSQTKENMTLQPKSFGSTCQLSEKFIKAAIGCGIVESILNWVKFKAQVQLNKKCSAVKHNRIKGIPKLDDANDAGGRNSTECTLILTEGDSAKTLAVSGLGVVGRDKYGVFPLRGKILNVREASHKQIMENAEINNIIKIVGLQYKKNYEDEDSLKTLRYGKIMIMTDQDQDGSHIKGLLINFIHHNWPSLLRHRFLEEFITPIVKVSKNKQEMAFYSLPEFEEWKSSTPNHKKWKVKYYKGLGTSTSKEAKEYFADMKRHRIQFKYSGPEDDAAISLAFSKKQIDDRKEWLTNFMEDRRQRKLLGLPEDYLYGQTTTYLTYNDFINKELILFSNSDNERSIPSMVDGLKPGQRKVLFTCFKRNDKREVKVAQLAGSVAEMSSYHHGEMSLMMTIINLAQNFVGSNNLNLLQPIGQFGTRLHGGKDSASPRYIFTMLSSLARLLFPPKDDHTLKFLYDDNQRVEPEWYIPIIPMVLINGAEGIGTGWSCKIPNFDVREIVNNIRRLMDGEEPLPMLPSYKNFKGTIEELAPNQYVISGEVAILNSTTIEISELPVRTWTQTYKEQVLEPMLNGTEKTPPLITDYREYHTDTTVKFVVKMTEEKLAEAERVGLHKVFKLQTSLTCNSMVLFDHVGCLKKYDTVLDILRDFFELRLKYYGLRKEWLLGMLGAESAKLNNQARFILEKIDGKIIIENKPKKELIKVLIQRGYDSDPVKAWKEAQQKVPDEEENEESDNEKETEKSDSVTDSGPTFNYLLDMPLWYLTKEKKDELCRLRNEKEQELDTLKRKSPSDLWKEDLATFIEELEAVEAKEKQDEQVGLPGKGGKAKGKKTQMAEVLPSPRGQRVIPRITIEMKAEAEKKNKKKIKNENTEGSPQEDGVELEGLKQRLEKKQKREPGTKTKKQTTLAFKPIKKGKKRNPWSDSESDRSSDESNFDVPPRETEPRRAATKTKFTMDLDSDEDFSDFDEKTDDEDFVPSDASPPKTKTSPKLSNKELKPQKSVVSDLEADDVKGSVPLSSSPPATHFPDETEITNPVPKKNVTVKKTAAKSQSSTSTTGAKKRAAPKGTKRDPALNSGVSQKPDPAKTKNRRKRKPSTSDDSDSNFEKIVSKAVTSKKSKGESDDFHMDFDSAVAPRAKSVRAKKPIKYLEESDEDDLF
Structure (SMILES),IC50 [1] [µM],MIC [2] [mg/L],MIC [3] [mg/L],inhibition [4],efflux ratio [5],solubility [6] [µM],half-life [7] [min],fraction unbound [8],Papp A→B [9] [nm/s],half-life [10] [min]
CCNC(=O)Nc1cc(-n2ccnn2)c(C(=O)Nc2cccnc2)cn1,0.2,,,,,,,,,
CCNC(=O)Nc1cc(-n2nccn2)c(C(=O)Nc2cccnc2)cn1,0.15,64,> 64,,,,,,,
CCNC(=O)Nc1cc(-n2cc(Br)cn2)c(C(=O)Nc2cccnc2)cn1,0.037,16,> 64,inactive,,,,,,
CCNC(=O)Nc1cc(Nc2ccc(OC)cc2)c(C(=O)Nc2cccnc2)cn1,0.019,4,> 64,inactive,2.82,2.4,20,0.028,118,
CCNC(=O)Nc1cc(N2CCC(N)C2)c(C(=O)Nc2cccnc2)cn1 (stereo not given),0.089,> 64,> 64,inactive,2.78,88.5,290,0.498,40.2,
CCNC(=O)Nc1cc(Nc2cccc(C)c2)c(C(=O)Nc2cccc(C)c2)cn1,,,,,,4.26,46,0.001,< 26.7,58
CCNC(=O)Nc1cc(-n2cncn2)c(C(=O)Nc2cccnc2)cn1,0.082,> 64,> 64,,,,,,,
CCNC(=O)Nc1cc(N2CCCC2)c(C(=O)Nc2cccnc2)cn1,0.12,64,> 64,,,,,,,
CCNC(=O)Nc1cc(Nc2ccccc2O)c(C(=O)Nc2cccnc2)cn1,0.41,> 64,> 64,,,,,,,
CCNC(=O)Nc1cc(-n2cccn2)c(C(=O)Nc2cccnc2)cn1,0.086,64,> 64,inactive,30.8,32.6,128,0.095,12.3,24
